Results as given in US4962155A (City of Hope, priority 1987, dated 1990).
Like-named read-outs stand apart in the source and are kept apart here. Blank lines part the entries; values can stand above or below the molecule they belong to.

Legend:
insulin receptor kinase = details: literature, cited from earlier work
[1] = biological target: T1, human insulin receptor kinase (Homo sapiens, UniProt P06213); assay: Kinase assay: phosphorylation of exogenous src-related peptide by purified insulin receptor; format: biochemical; details: for activation of the insulin receptor kinase over the control: 1 μM basic protein or polyamine, preincubated 25° C. 1 hour, FIG. 1; for reactivation of receptor preparations that lost kinase activity or insulin dependency: aged preparations stored at -70° C.; for concentrations at which kinase activity is stimulated: dose response
T1 construct: from tissue; host or cells: human placenta (Triton X-100 solubilized membranes; wheat germ agglutinin and insulin-Sepharose chromatography)
Protocol: The substrate used is a synthetic peptide (src-related peptide) which resembles the amino acid sequence around the site of phosphorylation of the tyrosine residue in the Rous sarcoma virus transforming protein, pp60^src, with the sequence ([…], Casnellie, J. E., et al., Proc. Natl. Acad. Sci. USA 79:282 (1982).
The phosphorylation assays were carried out at 25° C. for 40 minutes in 30 ul of 50 mM Tris-HCl buffer (pH 7.4) containing 1 mM of the src-related peptide, 2 mM MnCl2, 15 mM MgCl2, 0.1% Triton X-100, and 40 μM [γ-^32 ]ATP (12,000 cpm/pmole). The reaction was terminated by adding 50 μl of 5% trichloroacetic acid (TCA) and 20 μl of bovine serum albumin (BSA) (10 mg/ml), the resulting solution was then incubated at 0° C. for 30 minutes, and the proteins were precipitated by centrifugation. Aliquots (35 μl) of the resulting supernatant were spotted on phosphocellulose paper (Whatman, P-81). The papers were extensively washed in 75 mM phosphoric acid. Duplicates of the papers were prepared from each reaction mixture and ^32 P incorporated into the src-related peptide was counted using a liquid scintillation counter.

[2] = tested on: β subunit of the insulin receptor and calmodulin; details: rat hepatocyte insulin receptor preparations, absence of insulin; literature; cited from earlier work
[3] = biological target: T2, insulin receptor β subunit (Homo sapiens, UniProt P06213); assay: Phosphorylation (autophosphorylation) of insulin receptor subunits, SDS-PAGE and autoradiography; format: biochemical
T2 construct: from tissue; host or cells: human placenta (Triton X-100 solubilized membranes; wheat germ agglutinin and insulin-Sepharose chromatography)
Protocol: The β subunit of the purified receptor was phosphorylated in the same manner as described above for the exogenous substrate phosphorylation. The reaction was terminated by adding 3-times concentrated Laemmli's sample buffer followed by boiling for 5 minutes. SDS-polyacrylamide gel electrophoresis was then performed under reducing conditions as described by Laemmli, U. K., Nature 227:680 (1970). The gels were stained with silver, dried, and autoradiographed.
After the kinase reaction was terminated by adding TCA and BSA as described in the above procedures, the proteins containing the insulin receptor were precipitated by centrifugation. The precipitated proteins were then subjected to SDS polyacrylamide gel electrophoresis (7.5% gel) under reducing conditions. The gels were stained with silver, dried, and autoradiographed for 30 hours using a Kodak XAR-5 film and an intensifying screen.
The insulin receptor was then phosphorylated according to the procedures described above. After the phosphorylation, the receptors were analyzed by SDS polyacrylamide gel electrophoresis (10% gel) under non-reducing conditions. The gel was dried and autoradiographed for 45 minutes at -70° C. by exposing the gel to a Kodak XAR-5 film with an intensifying screen.

[4] = biological target: T3, β and α subunits of the insulin receptor (Homo sapiens, UniProt P06213); assay: Phosphoamino acid analysis of phosphorylated β and α subunits by paper electrophoresis; format: biochemical
T3 construct: from tissue; host or cells: human placenta (Triton X-100 solubilized membranes; wheat germ agglutinin and insulin-Sepharose chromatography)
Protocol: Chem 254:1206 (1984), and hydrolyzing the peptides in 2N HCl for 2 hours at 110° C. The materials were then analyzed by paper electrophoresis (pH 3.5, 2000 V, 1 hour) and autoradiography.
Lanes 1-4 of FIG. 4B contain amounts of hydrolysates equal to 50% of the starting materials from the FIG. 4A gel. […] Other radioactive samples were electrophoresed together with these three phosphoamino acids. Ninhydrin spots for those are not shown. X indicates the origin of the samples.

Kinase activity ([1]; preincubation with 0.1 mM DTT): 0.059 pmol/min
Kinase activity ([1]; preincubation with 0.5 mM DTT): 0.083 pmol/min
fold induction at 100 µM ([1]; read-out: Kinase Activity -fold, preincubation with 0.1 mM DTT, relative to no addition): 9.8
fold induction at 500 µM ([1]; read-out: Kinase Activity -fold, preincubation with 0.5 mM DTT, relative to no addition): 13.8
Molecule: O[C@H](CS)[C@H](O)CS (racemic) [DTT, dithiothreitol, reference compound]
activation of the insulin receptor kinase (insulin receptor kinase): activate the insulin receptor kinase
activation of the insulin receptor kinase (insulin receptor kinase; listed as dithiothreitol (DTT)): activates the insulin receptor kinase

Molecule: OO [H2 O2, hydrogen peroxide]
activation of the insulin receptor kinase (insulin receptor kinase): activate the insulin receptor kinase

Molecule: [Na+].[Na+].[Na+].[O]=[V]([O-])([O-])[O-] [vanadate, sodium orthovanadate]
activation of the insulin receptor kinase (insulin receptor kinase): activate the insulin receptor kinase

Molecule: concanavalin A
activation of the insulin receptor kinase (insulin receptor kinase): activate the insulin receptor kinase

Molecule: histone Hf2b [reference compound]
stimulation of phosphorylation of the β subunit of the insulin receptor (and calmodulin) [2]: appeared to stimulate the phosphorylation of both the β subunit of the insulin receptor and calmodulin

Molecule: insulin
activation of the insulin receptor kinase (insulin receptor kinase): activate the insulin receptor kinase

Molecule: poly L-arginine
stimulation of phosphorylation of the β subunit of the insulin receptor (and calmodulin) [2]: effective to stimulate the phosphorylation of the β subunit of the insulin receptor
effect on kinase activity in dose response ([1]; all concentrations examined, FIG. 2): inhibited the kinase activity of the receptor at any of the concentrations examined

Molecule: poly L-lysine
phosphorylation of insulin receptor subunits ([3]; 0.25 μM poly L-lysine, non-reducing SDS-PAGE, FIG. 4A lane 3): stimulates phosphorylation of α and β1 subunits in addition to the β subunit
stimulation of β subunit autophosphorylation compared with insulin ([3]; 0.001-10 μM poly L-lysine, with or without 1 μM insulin, FIG. 3B): greater than that of insulin
stimulation of phosphorylation of the β subunit of the insulin receptor (and calmodulin) [2]: appeared to stimulate the phosphorylation of both the β subunit of the insulin receptor and calmodulin
kinetic analysis (Vmax, KM), Lineweaver-Burk plots ([1]; 0.24 μM poly L-lysine, varying src-related peptide, FIGS. 6B, 6C): increasing Vmax without significantly changing KM
activation of the insulin receptor kinase over the control [1]: approximately 5 fold
stimulative effect on kinase activity ([1]; 100 μM poly L-lysine, FIG. 3A): can no longer be seen
reactivation of receptor preparations that lost kinase activity or insulin dependency [1]: can activate certain old insulin receptor preparations
reactivation of receptor preparations that lost kinase activity or insulin dependency ([1]; listed as Poly L-lysine): able to restore the kinase activity of insulin receptor preparation that have lost some, but not all, kinase activity
concentrations at which kinase activity is stimulated ([1]; FIG. 2): 0.1 to 1.0 µM
kinase activation compared with activation by insulin ([1]; optimum poly L-lysine concentrations vs 1 μM insulin, FIG. 3A): much greater than the kinase activation by insulin
Kinase activity ([1]; preincubation with 0.24 μM PLL): 0.234 pmol/min
Kinase Activity -fold ([1]; preincubation with 0.24 μM PLL, relative to no addition): 39 fold
Kinase activity ([1]; receptor preparation A, stored 36 Mo. at -70° C., 1 μM insulin or 0.24 μM poly L-lysine): 0.002 pmol/min
Kinase activity ([1]; receptor preparation B, stored 28 Mo. at -70° C., 1 μM insulin or 0.24 μM poly L-lysine): 0.174 pmol/min
Kinase activity ([1]; receptor preparation C, stored 15 Mo. at -70° C., 1 μM insulin or 0.24 μM poly L-lysine): 0.229 pmol/min
Kinase activity ([1]; receptor preparation D, stored 3 Mo. at -70° C., 1 μM insulin or 0.24 μM poly L-lysine): 2.30 pmol/min
Kinase activity ([1]; receptor preparation E, stored <3 Days, 1 μM insulin or 0.24 μM poly L-lysine): 1.13 pmol/min
kinase activity after poly L-lysine treatment ([1]; receptor preparations older than 36 months (data not shown)): no kinase activity
β subunit phosphorylation, radioactivity of hydrolysate ([4]; 0.25 μM poly L-lysine, 20% of the original material, FIG. 4B lane 6): 1700 cpm
α subunit phosphorylation, radioactivity of hydrolysate ([4]; 0.25 μM poly L-lysine, hydrolysate equal to 50% of starting material, FIG. 4B lane 4): 1000 cpm
β subunit phosphorylation, radioactivity of hydrolysate ([4]; 1 μM insulin or 0.25 μM poly L-lysine, hydrolysate equal to 50% of starting material, FIG. 4B): 4400 cpm
phosphoamino acid composition of phosphorylated β and α subunits ([4]; FIG. 4B): tyrosine was found to be a major amino acid whose phosphorylation was stimulated

Molecule: poly L-ornithine
stimulation of phosphorylation of the β subunit of the insulin receptor (and calmodulin) [2]: effective to stimulate the phosphorylation of the β subunit of the insulin receptor
activation of the insulin receptor kinase over the control [1]: approximately 4 fold
concentrations at which kinase activity is stimulated ([1]; FIG. 2): 0.1 to 1.0 µM

Molecule: protamine sulfate
stimulation of phosphorylation of the β subunit of the insulin receptor (and calmodulin) [2]: appeared to stimulate the phosphorylation of both the β subunit of the insulin receptor and calmodulin
stimulatory effect on kinase activity relative to basal ([1]; 10 μM, FIG. 2): approximately two-fold
